Measured values: publication PMC8147293, “Library of Selenocyanate and Diselenide Derivatives as In Vivo Antichagasic Compounds Targeting Trypanosoma cruzi Mitochondrion” (Pharmaceuticals, 2021)
Like-named read-outs stand apart in the source and are kept apart here.

Assays:
[1] = test system: Trypanosoma cruzi; assay: Anti-T. cruzi IgG (ELISA) and splenomegaly in treated BALB/c mice; assay type: in vivo; conditions: treated BALB/c mice versus untreated; excluding IgG levels of chronic CD
Description: Otherwise, the immune status of the mice was evaluated—through the titer of total anti-T. cruzi IgG and the splenomegaly (Figure S1)—since it is a characteristic linked to the parasite load and the effectiveness ascribed to the potential candidates. […].
(§1) All in vivo assays for the evaluation of compounds in the acute and chronic CD (Scheme 1)—monitoring of parasitemia, immunosuppression, PCR [59, 60], ELISA [56], and clinical analysis [56]—were performed as previously described. PCR was based on the Spliced Leader (SL) intergenic region sequence of T. cruzi (for detailed description, see literature reported previously).
Figure S1. A) Anti-Trypanosoma cruzi immunoglobulin G levels, expressed in absorbance at 492 nm, at different days post-infection (dpi) for each group of mice treated during the acute and chronic phases of Chagas disease: control (untreated), benznidazole (BZN), 8, 10 and 15. Blank and uninfected mice are also […]
included. […] Values are the means of three mice ± standard deviation. (IS) immunosuppression. * Significant differences between untreated and treated mice for α =
0.05. B) Weight percentage of spleens in the chronic Chagas disease for each group of mice treated during the acute and chronic phases of the disease: control (untreated), benznidazole (BZN), 8, 10 and 15. Values are the means of three mice ± standard deviation. In brackets: reduction of splenomegaly in comparison to […]
(§2) (1 picture or pasted object on this page, not shown here)

[2] = test system: Trypanosoma cruzi bloodstream trypomastigotes (BTs); assay: Screening against bloodstream trypomastigotes (resazurin); assay type: cell-based; conditions: for IC50: Trypanosoma cruzi, Table 1, bloodstream trypomastigotes, 24 h treatment + 4 h resazurin, read-out: Activity IC50 Trypomast.
Description: 2 × 10^6 Bloodstream trypomastigotes (BTs), obtained by cardiac puncture from infected BALB/c mice as previously described, were treated by adding the tested compounds at a concentration range from 50 to 0.1 µM in 96-well microplates (200 µL·well^−1) at 37 °C. After 24 h of treatment, resazurin sodium salt (Sigma-Aldrich) was added to be incubated for further 4 h. Finally, trypanocidal activity was determined following the same procedure as described to assess the trypanocidal activity in the epimastigotes. Each compound concentration was tested in triplicate in three independent experiments.

[3] = test system: Mammalian Vero cells; assay: Cytotoxicity test on Vero cells (resazurin); assay type: cell-based; conditions: Chlorocebus sabaeus, Table 1, Vero cells, 48 h + 24 h resazurin, read-out: Toxicity IC50 Vero Cell
Description: Mammalian Vero cells (EACC No. 84113001), cultured as previously reported, were used to determine the cytotoxicity of the tested compounds [56]. In short, 1.25 × 10^4 Vero cells·mL^−1 were treated by adding the compounds at a concentration range from 400 to 1 µM in 96-well microplates (200 µL·well^−1) at 37 °C for 48 h. Subsequently, resazurin sodium salt (Sigma-Aldrich) was added to be incubated for further 24 h. Finally, cell viability was determined following the same procedure as described to assess the trypanocidal activity in the epimastigotes. Each compound concentration was tested in triplicate in three independent experiments.

[4] = test system: epimastigotes of Trypanosoma cruzi; assay: Flow cytometry of nucleic acid levels (acridine orange); assay type: cell-based; conditions: IC25 concentrations, 72 h
Description: The untreated and treated epimastigotes of T. cruzi described in the NMR analysis were collected by centrifugation, washed three times in PBS and stained with […] rhodamine 123 (Rho) (Sigma-Aldrich) or acridine orange (AO) (Sigma-Aldrich) dyes in 0.5 mL PBS for 20 min at 28 °C [63]. Control epimastigotes with a fully depolarized mitochondrion were obtained by incubation for 40 min with 10 mM KCN prior to Rho loading. Non-stained parasites were also included. After elapsed time, epimastigotes were immediately processed and analyzed by flow cytometry as previously reported.
Figure S2. Nucleic acids levels of Trypanosoma cruzi exposed to benznidazole (BZN) and compounds at […]
Inhibition, in percentage, in the nucleic acids levels with respect to untntreated parasites. Values constitute means of three separate determinations ± standard deviation. Significant differences between untreated and treated parasites for α = 0.05.
as §2

[5] = test system: Trypanosoma cruzi; assay: Parasitemia reactivation after immunosuppression in BALB/c mice; assay type: in vivo; conditions: 20 mg/kg per day for 5 days; for reactivation of infection after immunosuppression: compared to untreated mice
Description: Secondly, the experimental cure was determined using a double checking widely used in in vivo trypanocidal trials. This double checking—based on immunosuppression and PCR (Figure 2B,C, respectively)—was performed to evaluate the treatment effectiveness and the disease extent in both acute and chronic CD at the end of the in vivo timeline. The mice whose parasitemia and PCR remain negative after immunosuppression are considered cured.
Immunosuppression enhances the reactivation of any residual infection, which is proportional to the parasite survival rate.
(§3) Infection was carried out by intraperitoneal inoculation of 5 × 10^5 BTs of T. cruzi per mouse in 0.2 mL PBS [56]. The mice were treated by oral route (~200 µL) once daily for 5 consecutive days. The treatment for mice treated in the acute and chronic phases began when the infection was confirmed (9th day post-infection (dpi)) and was established that the animals had entered the chronic phase (100th dpi), respectively.
(§4) The mice were divided into six groups (n = 3 per group): 0, negative control group (uninfected and untreated mice); I, positive control group (infected and untreated mice); II, BZN group (mice infected and treated with BZN); III, 8 group (mice infected and treated with 8); IV, 10 group (mice infected and treated with 10); V, 15 group (mice infected and treated with 15). The tested compounds and BZN were prepared at 2 mg·mL^−1 in an aqueous suspension vehicle containing 5% (v/v) DMSO and 0.5% (w/v) hydroxypropyl methylcellulose, as previously reported. Therefore, doses of 20 mg·kg^−1 per day were administered for 5 consecutive days, and vehicle only was administered in the negative and positive control groups.
as §1

[6] = test system: Trypanosoma cruzi intracellular amastigotes; assay: Screening against intracellular amastigotes in Vero cells (Giemsa counting); assay type: cell-based; conditions: for IC50: Trypanosoma cruzi, Table 1, intracellular amastigotes in Vero cells, 72 h, read-out: Activity IC50 Amast.
Description: (§5) Trypanocidal activity against amastigotes was determined according to the literature reported previously. […]. […] Each compound concentration was tested in triplicate in four separate determinations.

[7] = assay type: in vivo; conditions: BALB/c mice, 20 mg/kg per day for 5 days
Description: Finally, biochemical analyses were performed to assess the toxicity associated to the treatment of compound 8. Kidney, heart and liver biochemical markers were measured, including values from uninfected and BZN-treated mice (Table S2). […] The low toxicity allows compound 8 to be tested at higher doses, establishing an improved treatment schedule based on pharmacokinetics in order to reach a total parasite clearance.
as §1

[8] = test system: Trypanosoma cruzi; assay: PCR of seven organs/tissues of treated BALB/c mice (Spliced Leader sequence); assay type: in vivo
Description: To assess the efficacy of potential candidates by confirming the absence of infection in the target locations, PCR was carried out at the end of the in vivo timeline (Figure 2C). PCR was positive in seven organs/tissues for the untreated (control) mice groups in both phases, showing the presence of the typical nested amastigotes of the chronic CD.
as §3, §4, §1
Figure 2 (A) Parasitemia profiles of each group of mice infected with Trypanosoma cruzi and treated during the acute Chagas disease over a period of 55 days: control (untreated), benznidazole (BZN), 8, 10 and 15. Treatment days are represented in grey. […]. (B) Parasitemia reactivation by fresh blood in the chronic Chagas disease after the immunosuppression cycles for each group of mice treated during the acute and chronic phases of the disease: control (untreated), benznidazole (BZN), 8, 10, and 15. […]. (C) PCR analysis of seven organs/tissues with the Trypanosoma cruzi Spliced Leader (SL) intergenic region sequence in the chronic Chagas disease for each group of mice treated during the acute and chronic phases of the disease: (a) control (untreated), (b) benznidazole, (c) 8, (d) 10, and (e) 15.

[9] = test system: Trypanosoma cruzi; assay: Parasitemia monitoring in infected BALB/c mice, acute Chagas disease; assay type: in vivo; conditions: oral 20 mg/kg per day for 5 days from 9th dpi, versus untreated
Description: as §3, §4, §1

[10] = test system: Trypanosoma cruzi Fe-SOD; assay: SOD enzymatic inhibition, Fe-SOD; assay type: biochemical; conditions: at 100 µM
Description: (§6) Excreted Fe-SOD protein—obtained and quantified as previously described [64]—and commercial Cu/Zn-SOD from human erythrocytes (Sigma-Aldrich) were exposed to the tested compounds at a concentration range from 100 to 0.1 µM to determine in vitro activities using the method previously described.

[11] = molecular target: T1, human erythrocytes CuZn-SOD (Homo sapiens, UniProt P00441); assay: SOD enzymatic inhibition, CuZn-SOD; assay type: biochemical; conditions: 100 to 0.1 µM, read-out: CuZn-SOD IC50 (in brackets)
T1 construct: commercial Cu/Zn-SOD from human erythrocytes (Sigma-Aldrich); purchased Sigma-Aldrich; host or cells: human erythrocytes
Description: as §6

[12] = test system: Trypanosoma cruzi amastigotes in Vero cells; assay: Infection rate and amastigotes per Vero cell over 10 days; assay type: cell-based; conditions: IC25 concentrations, measured at 2 days intervals for 10 days
Description: Before going ahead on in vivo trials, the in vitro infection rate and the average number of amastigotes per Vero cell were also measured at 2 days intervals for 10 days after treating the infected cultures with BZN and potential candidates (8, 10, and 15) (Figure 1) at ICH25 concentrations resulting from amastigotes screening. […]. Fast-acting drugs are urgently needed, and this feature is an additional advantage since they can eliminate the parasite in a few doses.
as §5
Figure 1 (A) Percentage of infected Vero cells and (B) number of amastigotes of Trypanosoma cruzi per Vero cell exposed to benznidazole (BZN), 8, 10 and 15. Values constitute means of three separate determinations ± standard deviation. * Significant differences between untreated and treated parasites for α = 0.05. dpi, days post-infection.

[13] = test system: epimastigotes of T. cruzi Arequipa strain; assay: Screening against extracellular epimastigotes (resazurin); assay type: cell-based, Trypanosoma cruzi; conditions: for IC50: Trypanosoma cruzi
Description: Trypanocidal activity against epimastigotes of T. cruzi Arequipa strain (MHOM/Pe/2011/Arequipa, discrete typing unit V) was tested as previously described. In short, 5 × 10^5 epimastigotes·mL^−1 were treated by adding the tested compounds at a concentration range from 100 to 0.2 µM in 96-well microplates (200 µL·well^−1) for 48 h. Subsequently, resazurin sodium salt (Sigma-Aldrich) was added to be incubated for further 24 h. Finally, the absorbance was measured, and the trypanocidal activity was expressed as the IC50 (inhibitory concentration 50) using GraphPad Prism 6 software. Each compound concentration was tested in triplicate in three independent experiments.

[14] = test system: epimastigotes of T. cruzi Arequipa; assay: 1H NMR analysis of excreted metabolites; assay type: cell-based, Trypanosoma cruzi; conditions: IC25 concentrations, 72 h
Description: 5 × 10^5 epimastigotes·mL^−1 of T. cruzi Arequipa were treated by adding the tested compounds at IC25 concentrations in 25 cm^2 cell culture flasks at 28 °C for 72 h. Untreated controls were also included. Cultures were then centrifuged and filtered, and the metabolites of the supernatants were analyzed using a ^1H NMR spectrometer (VARIAN DIRECT DRIVE 500 MHz […]) with AutoX probe, D2O as solvent and 2,2-dimethyl-2-silapentane-5-sulphonate as the reference signal. Chemical shifts were expressed in parts per million (ppm), and analyses were conducted as previously reported.

T1 sequence (P00441 whole entry): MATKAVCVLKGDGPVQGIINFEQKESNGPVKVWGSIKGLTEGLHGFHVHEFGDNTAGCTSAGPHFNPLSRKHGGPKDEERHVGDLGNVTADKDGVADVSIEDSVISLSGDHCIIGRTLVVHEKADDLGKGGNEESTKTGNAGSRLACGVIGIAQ

O=C(Cn1ccnc1[N+](=O)[O-])NCc1ccccc1 [BZN, benznidazole, reference compound]
total anti-T. cruzi IgG levels and splenomegaly [1]: significant reduction | IC50 [2]: 12.4 ± 1.1 µM | IC50 [3]: 80.4 ± 7.1 µM | reduction in nucleic acid levels with respect to untreated parasites [4]: 22.4% | reactivation of infection after immunosuppression ([5]; mice treated in acute CD): 81% | reactivation of infection after immunosuppression ([5]; mice treated in chronic CD): 68% | IC50 [6]: 8.3 ± 0.7 µM | kidney, heart and liver biochemical markers [7]: disturbed 2 days after treatment | negative PCR (parasite-free locations) ([8]; mice treated in acute CD): 2/7 | negative PCR (parasite-free locations) ([8]; mice treated in chronic CD): 3/7 | parasitemia levels (counting BTs) during the acute CD [9]: remarkable parasitemia reduction

CSc1ccc(C[Se][Se]Cc2ccc(SC)cc2)cc1 [compound 10]
total anti-T. cruzi IgG levels and splenomegaly [1]: Slight or non-significant reductions | Selectivity Index Trypomast. ([2]; IC50 Vero cells/IC50 trypomastigotes): 79 | IC50 [2]: 1.7 ± 0.3 µM | CC50 ([3]; 72 h): 135 ± 6.3 µM | reactivation of infection after immunosuppression (in words) ([5]; acute and chronic CD): light activity | Selectivity Index Amast. ([6]; IC50 Vero cells/IC50 amastigotes): 112 | IC50 [6]: 1.2 ± 0.2 µM | Fe-SOD inhibition [10]: 100% | IC50 [11]: > 100 µM | infection rate and average number of amastigotes per Vero cell [12]: decrease in both infection rate and number of amastigotes per cell in a time-dependent manner | Selectivity Index Epimast. ([13]; IC50 Vero cells/IC50 epimastigotes): 75 | IC50 ([13]; Table 1, T. cruzi epimastigotes, 48 h treatment + 24 h resazurin, read-out: Activity IC50 Epimast.): 1.8 ± 0.2 µM | IC50 ([13]; Table S1, cultured epimastigote form of T. cruzi, read-out: Activity IC50): ≤ 10 µM | variation of excreted metabolites versus untreated parasites [14]: < 10% | parasitemia levels (counting BTs) during the acute CD [9]: slight activity
